Reference: patent US20090143285A1, “TARGET PROTEIN AND TARGET GENE FOR DRUG DISCOVERY AND SCREENING METHOD” (REVERSE PROTEOMICS RESEARCH INSTITUTE CO., LTD., priority 2005, published 2009)
Entries after “also recorded” stand apart in the source; their conditions may differ. Where two headings read alike, the source gives them in different places.

Tests used:
FLJ38531-derived protein = target: T1, FLJ38531-derived protein (Homo sapiens, UniProt Q9BVM4); assay: SEC/MS interaction analysis, FLJ38531-derived protein (hypothetical protein BC004360); type: binding; conditions: spin column method; doses of both compound and protein varied
T1 construct: His-tag (N); made in house; host or cells: Escherichia coli BL21star(DE3)pLysS
T1 sequence (Q9BVM4 1-153): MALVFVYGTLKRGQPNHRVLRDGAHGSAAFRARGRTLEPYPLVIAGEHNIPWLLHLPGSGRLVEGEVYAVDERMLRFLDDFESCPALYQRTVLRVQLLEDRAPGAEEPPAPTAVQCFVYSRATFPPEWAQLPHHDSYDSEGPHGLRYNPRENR
Description: (§1) To analyze the interactions between commonly used drugs and proteins expressed from human full-length cDNA clones while keeping both the proteins and the compounds in non-modified, non-immobilized state, size exclusion chromatography (SEC) and mass analysis were used in combination. The specific procedures are shown below.
(§2) The compound-protein mixture prepared in step 1 was subjected to chromatography using an SEC column, the compound and the protein were separated by SEC, and the compound that interacted with the bound compound or protein contained in the protein fraction was analyzed using a mass analyzer.
(§3) Protein concentrations were measured using BCA Protein Assay (PIERCE), in consideration of the purity calculated by SDS-PAGE.
(§4) Mass analysis was performed using LCQ DECA XP (Thermoelectron) or Q-TOF micro (Micromass), equipped with an ESI probe. The LC pump used was Agilent 1100 (Yokogawa Analytical Systems), and the autosampler used was HTC-PAL (CTC Analytics) equipped with a cooling stacker. The SEC column used was a micro-LC column or a 384-well spin column. […]
(§5) In the 384-well spin column method, Unifilter 100 (Whatman), packed with 10 μL (dry volume) of Bio-Gel P6 (BIO-RAD) and swollen with milliQ water, was used as the SEC column. […] The SEC spin column was mounted on an acetonitrile-aliquoted 384-well U-bottom plate and centrifuged; the SEC spin column filtrate, which is a protein fraction, was recovered in 50% acetonitrile. The protein precipitate produced by the acetonitrile was removed via centrifugation and filtration for deproteinization; the resulting filtrate was concentrated by centrifugal concentration and re-dissolved in 10 μL of 50% methanol to obtain a mass analysis sample. The mobile phase supplied to the mass analyzer was 0.1% formic acid/50% methanol solution in the positive ion mode, and 0.1% ammonia/50% methanol solution in the negative ion mode; these mobile phases were used at a flow rate of 40 μL/min. 2-μL of mass analysis samples were injected using an autosampler at 2-minute intervals; the mass spectral intensity of the compound was measured to retrieve the spectral intensity of the pharmaceutical compound contained in the SEC spin column filtrate (protein fraction eluted from SEC).

[1] = system: FLJXXXXX-derived proteins; assay: SEC/MS spin column interaction analysis of FLJXXXXX-derived proteins and various compounds (Tables 30-1 to 30-4); type: binding, human
FLJ10420-derived protein = target: T2, FLJ10420-derived protein (Homo sapiens, UniProt Q9NVZ3, T157A); assay: SEC/MS interaction analysis, FLJ10420-derived protein (hypothetical protein FLJ10420); type: binding
T2 construct: His-tag (N); made in house; host or cells: Escherichia coli BL21star(DE3)pLysS
T2 sequence (Q9NVZ3 1-263 T157A): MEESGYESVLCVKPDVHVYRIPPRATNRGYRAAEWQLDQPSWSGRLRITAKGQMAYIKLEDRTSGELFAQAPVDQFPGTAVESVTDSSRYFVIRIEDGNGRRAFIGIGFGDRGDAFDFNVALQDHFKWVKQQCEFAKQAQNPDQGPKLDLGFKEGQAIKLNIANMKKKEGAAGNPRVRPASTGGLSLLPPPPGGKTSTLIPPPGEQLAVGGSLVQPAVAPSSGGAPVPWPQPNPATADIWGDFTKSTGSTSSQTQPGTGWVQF
Description: as §1, §2, §3, §4, §5

FLJ41991-derived protein = target: T3, FLJ41991-derived protein (Homo sapiens, UniProt P57764, E293G); assay: SEC/MS interaction analysis, FLJ41991-derived protein (GSDMDC1); type: binding
T3 construct: His-tag (N); made in house; host or cells: Escherichia coli BL21star(DE3)pLysS (pDEST17)
T3 sequence (P57764 265-484 E293G): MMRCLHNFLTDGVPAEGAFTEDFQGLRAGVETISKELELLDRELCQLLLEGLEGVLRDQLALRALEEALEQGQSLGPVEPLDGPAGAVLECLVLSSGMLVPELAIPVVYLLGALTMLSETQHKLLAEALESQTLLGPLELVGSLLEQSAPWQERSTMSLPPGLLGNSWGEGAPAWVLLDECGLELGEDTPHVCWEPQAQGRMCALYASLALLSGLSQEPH
Description: as §1, §2, §3, §4, §5

[2] = SEC spin column filtrate, spectral intensity increased with doses of compound and protein
[3] = compound 12.5 μM, protein 10 μM
[4] = compound 62.5 μM, protein 10 μM
[5] = spin column method, doses of both compound and protein varied

CCn1cc(C(=O)O)c(=O)c2ccc(C)nc21 [nalidixic acid]
interaction judged from spectrum intensity of the compound in the SEC spin column filtrate (protein fraction eluted from SEC) (FLJ38531-derived protein): concentration-dependent interaction | FLJ No of the derived protein with which the compound was judged to exhibit a concentration-dependent interaction [1, 2]: FLJ38531

CC(=O)O[C@H]1C(=O)[C@@]2(C)[C@H]([C@H](OC(=O)c3ccccc3)[C@]3(O)C[C@H](OC(=O)[C@H](O)[C@@H](NC(=O)c4ccccc4)c4ccccc4)C(C)=C1C3(C)C)[C@]1(OC(C)=O)CO[C@@H]1C[C@@H]2O [paclitaxel]
FLJ No of the derived protein with which the compound was judged to exhibit a concentration-dependent interaction [1, 2]: FLJ39553

COc1cc2c(cc1OC)-c1cc3ccc(OC)c(OC)c3c[n+]1CC2 [palmatine]
FLJ No of the derived protein with which the compound was judged to exhibit a concentration-dependent interaction [1, 2]: FLJ39553

C[C@@H]1C[C@H]2[C@@H]3C[C@H](F)C4=CC(=O)C=C[C@]4(C)[C@H]3[C@@H](O)C[C@]2(C)[C@@]1(O)C(=O)CO [paramethasone]
FLJ No of the derived protein with which the compound was judged to exhibit a concentration-dependent interaction [1, 2]: FLJ39553

CC(=O)CCCCn1c(=O)c2c(ncn2C)n(C)c1=O [pentoxifylline]
FLJ No of the derived protein with which the compound was judged to exhibit a concentration-dependent interaction [1, 2]: FLJ35353

COc1ccc(C(=O)NCc2cccnc2)cc1C(=O)NCc1cccnc1 [picotamide]
spectrum intensity of the compound in the SEC spin column filtrate (FLJ10420-derived protein; compound 12.5 μM, protein 0 μM): 412892 | spectrum intensity of the compound in the SEC spin column filtrate (FLJ10420-derived protein; compound 12.5 μM, protein 5 μM): 323916 | spectrum intensity of the compound in the SEC spin column filtrate (FLJ10420-derived protein; [3]): 294069 | spectrum intensity of the compound in the SEC spin column filtrate (FLJ10420-derived protein; compound 12.5 μM, protein 15 μM): 237571 | spectrum intensity of the compound in the SEC spin column filtrate (FLJ10420-derived protein; compound 25 μM, protein 0 μM): 441470 | spectrum intensity of the compound in the SEC spin column filtrate (FLJ10420-derived protein; compound 25 μM, protein 5 μM): 490309 | spectrum intensity of the compound in the SEC spin column filtrate (FLJ10420-derived protein; compound 25 μM, protein 10 μM): 647010 | spectrum intensity of the compound in the SEC spin column filtrate (FLJ10420-derived protein; compound 25 μM, protein 15 μM): 496587 | spectrum intensity of the compound in the SEC spin column filtrate (FLJ10420-derived protein; compound 62.5 μM, protein 0 μM): 841101 | spectrum intensity of the compound in the SEC spin column filtrate (FLJ10420-derived protein; compound 62.5 μM, protein 5 μM): 1376939 | spectrum intensity of the compound in the SEC spin column filtrate (FLJ10420-derived protein; [4]): 1450464 | spectrum intensity of the compound in the SEC spin column filtrate (FLJ10420-derived protein; compound 62.5 μM, protein 15 μM): 1862334 | interaction judged from spectrum intensity of the compound in the SEC spin column filtrate (protein fraction eluted from SEC) (FLJ10420-derived protein; [5]): concentration-dependent interaction | FLJ No of the derived protein with which the compound was judged to exhibit a concentration-dependent interaction [1, 2]: FLJ10420

CC(N/C(=N\C#N)Nc1ccncc1)C(C)(C)C (centres unmarked) [pinacidil]
FLJ No of the derived protein with which the compound was judged to exhibit a concentration-dependent interaction [1, 2]: FLJ35353

CNCCCC1c2ccccc2C=Cc2ccccc21 [protriptyline.]
FLJ No of the derived protein with which the compound was judged to exhibit a concentration-dependent interaction [1, 2]: FLJ20972

CCN(CC)CCCC(C)Nc1c2ccc(Cl)cc2nc2ccc(OC)cc12 (centres unmarked) [quinacrine]
spectrum intensity of the compound in the SEC spin column filtrate (FLJ41991-derived protein; compound 12.5 μM, protein 0 μM): 36421 | spectrum intensity of the compound in the SEC spin column filtrate (FLJ41991-derived protein; compound 12.5 μM, protein 5 μM): 77607 | spectrum intensity of the compound in the SEC spin column filtrate (FLJ41991-derived protein; [3]): 225680 | spectrum intensity of the compound in the SEC spin column filtrate (FLJ41991-derived protein; compound 12.5 μM, protein 25 μM): 439131 | spectrum intensity of the compound in the SEC spin column filtrate (FLJ41991-derived protein; compound 25 μM, protein 0 μM): 40978 | spectrum intensity of the compound in the SEC spin column filtrate (FLJ41991-derived protein; compound 25 μM, protein 5 μM): 125609 | spectrum intensity of the compound in the SEC spin column filtrate (FLJ41991-derived protein; compound 25 μM, protein 10 μM): 481486 | spectrum intensity of the compound in the SEC spin column filtrate (FLJ41991-derived protein; compound 25 μM, protein 25 μM): 457713 | spectrum intensity of the compound in the SEC spin column filtrate (FLJ41991-derived protein; compound 62.5 μM, protein 0 μM): 123977 | spectrum intensity of the compound in the SEC spin column filtrate (FLJ41991-derived protein; compound 62.5 μM, protein 5 μM): 598920 | spectrum intensity of the compound in the SEC spin column filtrate (FLJ41991-derived protein; [4]): 1080431 | spectrum intensity of the compound in the SEC spin column filtrate (FLJ41991-derived protein; compound 62.5 μM, protein 25 μM): 1854355 | interaction judged from spectrum intensity of the compound in the SEC spin column filtrate (protein fraction eluted from SEC) (FLJ41991-derived protein; [5]): concentration-dependent interaction | FLJ No of the derived protein with which the compound was judged to exhibit a concentration-dependent interaction [1, 2]: FLJ37909; also recorded: FLJ41991

COC(=O)[C@H]1[C@H]2C[C@@H]3c4[nH]c5cc(OC)ccc5c4CCN3C[C@H]2C[C@@H](OC(=O)/C=C/c2cc(OC)c(OC)c(OC)c2)[C@@H]1OC [rescinnamine]
FLJ No of the derived protein with which the compound was judged to exhibit a concentration-dependent interaction [1, 2]: FLJ37909

COC(=O)[C@H]1[C@H]2C[C@@H]3c4[nH]c5cc(OC)ccc5c4CCN3C[C@H]2C[C@@H](OC(=O)c2cc(OC)c(OC)c(OC)c2)[C@@H]1OC [reserpine]
FLJ No of the derived protein with which the compound was judged to exhibit a concentration-dependent interaction [1, 2]: FLJ37909

COc1cccc(CCc2ccccc2OCC(CN(C)C)OC(=O)CCC(=O)O)c1 (centres unmarked) [sarpogrelate]
FLJ No of the derived protein with which the compound was judged to exhibit a concentration-dependent interaction [1, 2]: FLJ39553

C[C@@H]1CC[C@@]2(NC1)O[C@H]1C[C@H]3[C@@H]4CC=C5C[C@@H](O)CC[C@]5(C)[C@H]4CC[C@]3(C)[C@H]1[C@@H]2C [solasodine]
FLJ No of the derived protein with which the compound was judged to exhibit a concentration-dependent interaction [1, 2]: FLJ35353

COc1cc(NS(=O)(=O)c2ccc(N)cc2)nc(OC)n1 [sulfadimethoxine]
FLJ No of the derived protein with which the compound was judged to exhibit a concentration-dependent interaction [1, 2]: FLJ39553

CCOC(=O)Oc1c(OC)cc(C(=O)O[C@@H]2C[C@@H]3CN4CCc5c([nH]c6cc(OC)ccc56)[C@H]4C[C@@H]3[C@H](C(=O)OC)[C@H]2OC)cc1OC [syrosingopine]
FLJ No of the derived protein with which the compound was judged to exhibit a concentration-dependent interaction [1, 2]: FLJ35353

CC/C(=C(\c1ccccc1)c1ccc(OCCN(C)C)cc1)c1ccccc1 [tamoxifen]
FLJ No of the derived protein with which the compound was judged to exhibit a concentration-dependent interaction [1, 2]: FLJ37909

c1ccc2c(c1)CCCC2C1=NCCN1 (centres unmarked) [tetrazoline]
FLJ No of the derived protein with which the compound was judged to exhibit a concentration-dependent interaction [1, 2]: FLJ36526

CSc1ccc2c(c1)N(CCC1CCCCN1C)c1ccccc1S2 (centres unmarked) [thioridazine]
FLJ No of the derived protein with which the compound was judged to exhibit a concentration-dependent interaction [1, 2]: FLJ37909

CN1CCN(CC/C=C2/c3ccccc3Sc3ccc(S(=O)(=O)N(C)C)cc32)CC1 [thiothixene (cis), thiothixene]
FLJ No of the derived protein with which the compound was judged to exhibit a concentration-dependent interaction [1, 2]: FLJ37909 | FLJ No of the derived protein with which the compound was judged to exhibit a concentration-dependent interaction ([1]; SEC spin column filtrate, spectral intensity increased with doses of compound and protein, listed as Thiothixene (cis)): FLJ35353

C[C@H]1CC[C@]2(NC1)O[C@H]1C[C@H]3[C@@H]4CC[C@H]5C[C@@H](O)CC[C@]5(C)[C@H]4CC[C@]3(C)[C@H]1[C@@H]2C [tomatidine]
FLJ No of the derived protein with which the compound was judged to exhibit a concentration-dependent interaction [1, 2]: FLJ35353

CC(C)C[C@H]1C(=O)N2CCC[C@H]2[C@]2(O)O[C@](NC(=O)[C@@H]3C=C4c5cccc6[nH]cc(c56)C[C@H]4N(C)C3)(C(C)C)C(=O)N12 [α-ergocryptine]
FLJ No of the derived protein with which the compound was judged to exhibit a concentration-dependent interaction [1, 2]: FLJ35353

celestine blue
FLJ No of the derived protein with which the compound was judged to exhibit a concentration-dependent interaction [1, 2]: FLJ39553

cyclosporin A
FLJ No of the derived protein with which the compound was judged to exhibit a concentration-dependent interaction [1]: FLJ23466; also recorded: FLJ11211; also recorded: FLJ37909

eburnamonine
FLJ No of the derived protein with which the compound was judged to exhibit a concentration-dependent interaction [1, 2]: FLJ11211

spiramycin
FLJ No of the derived protein with which the compound was judged to exhibit a concentration-dependent interaction [1, 2]: FLJ21841
